Assay results from patent US20260256799A1, “INHIBITORS FOR TREATING SOLID TUMOURS” (UNIVERSITY OF SOUTHAMPTON, priority 2023, published 2026).

Tests used:
TC-1 cells = test: Isograft model TC-1 alone (control, myoCAF-low tumours); assay type: in vivo, C57/BL6 female mice; settings: AZD0156 20 mg/Kg oral gavage daily
Protocol: All mouse experiments were performed according to national and international guidelines and were approved by the authors' institutional review board and the UK Home Office. Xenograft model: 6.7×10^5 PT cells±2×10^6 HFFF2 cells were resuspended in 100 μl PBS and injected s.c. in the flank of partially immunocompromised, male RAG1−/−C57BL/6 mice (3-5 months old). Isograft models: 0.5×10^5 TC-1 cells±3×10^5 TGF-β1-treated murine lung fibroblasts (myoMLFs) or 1×10^5 MC38 cells±5×10^5 TGF-β1-treated murine colon fibroblasts (myoMCFs) were resuspended in 100 μl PBS and injected s.c. in the flank of C57/BL6 female mice (6-8 weeks old). 5-8 animals for both models were used per group. Tumour size was measured over time using an electronic caliper and calculated using the formula 4π/3×r3 [radius (r) calculated from the average diameter, measured as the tumour width and length]. […]
The area under the curve (AUC) for each individual tumour within a treatment group for multiple experiments was analyzed by ordinary Two-way Anova using as two independent variables ‘the experiments’ (factor 1) and ‘the treatments’ (factor 2), and as dependent variable ‘the AUC’ of each mouse; then, the inventors looked at just factor 2. […]

[1] = tested on: MC38 cells + TGF-β1-treated murine colon fibroblasts (myoMCF); test: Isograft model MC38 + myoMCF (myoCAF-high tumours); assay type: in vivo, C57/BL6 female mice; settings: AZD0156, myoCAF-high MC38 tumours
Protocol: SMA immunohistochemistry (IHC; Sigma Aldrich; A2547) on FFPE tissues was performed as previously: in brief, tissues were fixed in 4% paraformaldehyde and embedded in paraffin. 4 μm sections were de-paraffinized, rehydrated and antigen retrieved for 20 minutes at 97° C. using a predefined program on the Dako PT links. Antigen retrieval was performed using Envision FLEX High pH. Endogenous peroxidase activity was blocked using 3% hydrogen peroxide. Mouse Ig blocking reagent (M.O.M kit vector labs) was applied for 1 hour. Primary antibody incubation (1:100) in M.O.M diluent (vector labs) was for 20 minutes. […] Images were captured using an Olympus CKX41 microscope with Cell B imaging software. % area of staining was calculated using Fiji software (java) by running the ‘color deconvolution’ tool analyzing H DAB. […] The mean was calculated from 2 or 3 mice/experimental group.
Quantification of SMA staining in mouse tumours was carried out using color thresholding and deconvolution in Fiji. […]
CD8 and CD4 IHC was performed on frozen tissue embedded in OCT using [YTS169 (CD8; in house) and RM4-5 (CD4; BD) (FIG. 6c & FIG. 12e). […] CD8 and CD4 T-cells were counted from ten randomly selected fields of view (FoV) from the tumour by a consultant pathologist (GJT). […]

[2] = monotherapy, dose escalation phase 1; cited from earlier work

## CN(C)CCCOc1ccc(-c2ccc3ncc4c(c3c2)n(C2CCOCC2)c(=O)n4C)cn1 [AZD0156]
TC-1 cells
  growth of control (myoCAF-low) tumours: minimal effect
[1]
  CD4 T-cell infiltration (IHC): unaffected
  location of CD8 T-cells, tumour periphery to tumour core (IHC): significant relocation
[2]
  adverse effects: not yet reporting to be associated with adverse effects
